Data reported in publication PMC7018645, “Hijacking the Fusion Complex of Human Parainfluenza Virus as an Antiviral Strategy” (mBio, 2020).
Where two headings read alike, the source gives them in different places.

Experiments:
[1] = test system: clinical isolate HPIV3 HN; test: Hemadsorption (HAD) assay of HN-receptor binding; assay type: cell-based, human parainfluenza virus type 3; conditions: cells expressing clinical strain HN, RBC binding
Procedure: We assessed the effect of PAC-3066 on HPIV3 HN-receptor binding in a hemadsorption (HAD) assay that quantitates the binding of sialic acid receptor-bearing erythrocytes (RBC) to HN/F-coexpressing cells.
(§1) (A) Sensitivity of HN-receptor binding to viral entry inhibitors of cell monolayers expressing clinical isolate HPIV3 HN, incubated with either PAC-3066, zanamivir, or DMSO. Percent inhibition relative to that for DMSO-treated cells is shown. Each point represents the mean from 3 experiments, each of which was performed in triplicate, ± SEM. […] Each bar represents the results from triplicate experiments, each of which was performed in triplicate, ± SEM.
Hemadsorption (HAD) was performed and quantified as previously described ([13]). Briefly, the growth medium was aspirated from HN-transfected 293T cell monolayers in 48-well BioCoat plates (Becton Dickson Labware), the medium was replaced with 150 μl of CO2-independent medium (pH 7.3; Gibco) containing different concentrations of compounds and 1% RBC in serum-free CO2-independent medium, and the plates were placed at 4°C for 30 min. The wells were then washed three times with 150 μl cold CO2-independent medium. The bound RBCs were lysed with 200 μl RBC lysis solution (0.145 M NH4Cl, 17 mM Tris HCl), and the absorbance at 405 nm was read using a Tecan M-1000 Pro microplate reader.

[2] = test system: HPIV3 clinical isolate HN neuraminidase; test: Neuraminidase activity on cell monolayers expressing HN; assay type: biochemical, human parainfluenza virus type 3; conditions: 37°C, pH 5
Procedure: as §1
Assays for the measurement of neuraminidase activity were performed in transiently transfected 293T cell monolayers, as described previously ([13], [34], [82]). Briefly, 293T cells expressing HN were added to 96-well plates in CO2-independent medium at pH 5.0. After adding reaction mixtures containing 20 mM 2′-(4-methylumbelliferyl)-alpha-D-N-acetylneuraminic acid (Toronto Research Chemicals Inc.) substrate and different concentrations of the compounds, the plates were incubated at 37°C for 1 h. Throughout this period, the fluorescence resulting from hydrolysis of the substrate was read at a 365-nm excitation wavelength and a 450-nm emission wavelength using a Tecan M-1000 Pro microplate reader.

[3] = test system: HPIV3 clinical isolate (CI-1) eGFP
mCherry-HPIV3 [4] = test system: mCherry-HPIV3
[5] = test system: HPIV3 clinical isolate (CI-1) eGFP; test: microbe, parasite or virus in culture; conditions: Human respirovirus 3, read-out: IC50 for inhibition of viral entry
mCherry-HPIV3 [6] = test: microbe, parasite or virus in culture; conditions: Human respirovirus 3, Vero, read-out: IC50 of pure compound (inhibition of viral spread)

SMILES	effect on HN-receptor binding [1]	effect on viral neuraminidase activity [2]	inhibition of viral infection by HPIV3 [3]	combination effect with zanamivir (mCherry-HPIV3 [4]; PAC-3066 concentrations below 250 μM)	antagonism with zanamivir (mCherry-HPIV3 [4]; all pairwise combinations)	combination effect with zanamivir (mCherry-HPIV3 [4]; higher PAC-3066 concentrations, e.g. 1,000 μM)	combination effect with zanamivir (mCherry-HPIV3 [4]; range of zanamivir/PAC-3066 ratios, strongest at 1:1, 1:3 or greater, PAC-3066 250 μM, Combenefit)	IC50 [5] [µM]	IC50 (mCherry-HPIV3 [6]) [µM]
CC(=O)Nc1cc(NS(=O)(=O)c2ccc(F)cc2F)ccc1O [PAC-3066]	did not affect receptor binding	no inhibitory effect	inhibited viral infection by HPIV3	only additive effects were observed	No significant antagonism was observed	no synergy	strong synergy	~37	308
CC(=O)N[C@H]1[C@H]([C@H](O)[C@H](O)CO)OC(C(=O)O)=C[C@@H]1N=C(N)N [zanamivir, reference compound]	inhibits HN-receptor binding	inhibits HPIV3 HN’s neuraminidase	–	–	–	–	–	–	–
N#CCc1cc(NS(=O)(=O)c2cccs2)ccc1O [CM9, reference compound]	–	–	inhibited viral infection by HPIV3	–	–	–	–	–	–
